Data on one compound can be found in ChEMBL document CHEMBL5505993, “Identification of a ferritinophagy inducer via sinomenine modification for the treatment of colorectal cancer” (Eur J Med Chem, 2024).

Format in all cases: functional, cell-based
In test [1] the test system is HCT-116. As to the kind of experiment: Induction of ferroptosis in human HCT-116 cells assessed as effect on p53 protein expression at 5 to 20 uM incubated for 12 hrs by Western blotting analysis. To be noted: dose 5-20 µM. A general note: In western blotting, separated proteins are transferred to a membrane and probed.
Test [2] relates to HCT-116. As to the kind of experiment: Cytotoxicity against human HCT-116 cells assessed as inhibition of cell growth incubated for 48 hrs by CCK-8 assay. To be noted: HCT-116, 48 h. (In general: Formazan colour is commonly taken as a measure of viable cells.)
The test system of test [3] is HCT-116. As to the kind of experiment: Cytotoxicity against human HCT-116 cells assessed as inhibition of cell growth incubated for 12 to 48 hrs by CCK-8 assay. To be noted: time 12-48 hrs.
For test [4], the system named is HCT-116. As to the kind of experiment: Induction of autophagy in human HCT-116 cells assessed as increase in 4-HNE level at 20 uM incubated for 12 hrs in presence of autophagy inhibitor, Bafilomycin A1 by ELISA.
Test [5] concerns HCT-116. As to the kind of experiment: Induction of ferritin autophagy in human HCT-116 cells assessed as upregulation of NCOA4 protein expression at 5 to 20 uM incubated for 12 hrs by Western blotting analysis. To be noted: dose 5-20 µM.

Activity calls are given as the source filed them. The rule behind the calls is not given here.

As for `C=C(Cl)C(=O)NCCCCCCCCCCCC(=O)Oc1c(OC)ccc2c1[C@@]13CCN(C)[C@@H](C2)[C@H]1C=C(OC)C(=O)C3`, the result in test [1], in test [4] and in test [5] was inactive. The IC50 in test [2] was 5.87 µM. Further, the Activity entry in test [3] is “Dose-Dependent Effect”.

As usually defined, the IC50 is the concentration that gives 50% inhibition.
